Assays:
[1] = cited from earlier work
[2] = administration to mice; cited from earlier work
UT-B [3] = conditions: cited from earlier work
[4] = microsomal stability with rat liver microsomes and NADPH, LCMS analysis; format: in vitro ADME; conditions: liver microsomes
UT-B [5] = target: T1, UT-B (Homo sapiens, UniProt Q13336); assay: erythrocyte lysis assay for UT-B inhibition; format: cell-based, mouse
T1 sequence (Q13336 1-389): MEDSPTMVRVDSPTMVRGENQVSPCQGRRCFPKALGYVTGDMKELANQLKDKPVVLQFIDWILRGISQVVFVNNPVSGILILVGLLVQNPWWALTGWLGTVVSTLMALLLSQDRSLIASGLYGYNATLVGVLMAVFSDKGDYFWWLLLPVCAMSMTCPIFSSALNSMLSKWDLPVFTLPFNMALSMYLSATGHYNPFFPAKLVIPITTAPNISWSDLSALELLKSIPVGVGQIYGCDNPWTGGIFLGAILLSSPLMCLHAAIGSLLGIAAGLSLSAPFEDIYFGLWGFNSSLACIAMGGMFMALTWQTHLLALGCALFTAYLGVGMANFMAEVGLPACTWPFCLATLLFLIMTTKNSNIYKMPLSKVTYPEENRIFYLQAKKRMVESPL

[6] = IC50 (inhibitory potency, abstract), UT-B inhibition
[7] = IC50 (UT-B inhibition activity), mouse erythrocyte lysis assay (n = 3), fit to single-site saturation model

CCc1ccc(S(=O)(=O)c2nnn3c2nc(NCc2cccs2)c2sccc23)cc1 [Compound 1a]
microsomal degradation / hepatic oxidation [1]: underwent rapid oxidation by hepatic enzymes
effect on urine osmolality [2]: reduced urine osmolality
effect on urine output [2]: increased urine output
mechanism of UT-B inhibition (UT-B [3]): competitive mechanism

CC(F)(F)c1ccc(S(=O)(=O)c2nnn3c2nc(NCc2cccs2)c2sccc23)cc1 [Compound 1c]
microsomal degradation / hepatic oxidation [1]: resisted microsomal degradation
remaining at 0.5 h [4]: 96%

Cc1csc(CNc2nc3c(S(=O)(=O)c4ccc(C(C)(F)F)cc4)nnn3c3ccsc23)c1 [Compound 4a]
IC50 (UT-B [5]; [6]): ~40 nM

CC(F)(F)c1ccc(S(=O)(=O)c2nnn3c2nc(NCc2ccsc2)c2sccc23)cc1 [Compound 4b]
IC50 (UT-B [5]; [6]): ~40 nM

CC(F)(F)c1ccc(S(=O)(=O)c2nnn3c2nc(NCc2ccccc2)c2sccc23)cc1 [Compound 4d]
IC50 (UT-B [5]; [7]): > 800 nM

CC(F)(F)c1ccc(S(=O)(=O)c2nnn3c2nc(NCC2CC2)c2sccc23)cc1 [Compound 4e]
IC50 (UT-B [5]; [7]): > 800 nM

CC(F)(F)c1ccc(S(=O)(=O)c2nnn3c2nc(NCC2CCC2)c2sccc23)cc1 [Compound 4f]
IC50 (UT-B [5]; [7]): > 800 nM

Reference: article PMC3954708 (Bioorganic & medicinal chemistry letters, 2013)
